Experimental data taken from patent US8778643B2, “Methods for increasing lipid levels and producing triacylglycerols in algae” (priority 2012, dated 2014).
Where “and” joins values, the source holds several entries; their conditions need not be identical. Equal values may be shown once. Read-outs that look alike come from different tables or passages of the source.

Legend:
Nannochloropsis oculata = conditions: for % Lipid increase based on Nile red fluorescence intensity: t=day 0; for % Increase based on Nile Red Fluorescence Intensity: added t=day 0
[1] = tested on: Phaeodactylum tricornutum; experiment: Microplate assay: growth (absorbance 680 nm) and intracellular lipids (Nile Red fluorescence); format: cell-based; conditions: for % Inc: increase of lipid production; for Nile Red Fluorescence % Increase: initial screening, p<0.05
Nannochloris sp. = experiment: as above; format: cell-based
Method: Stock cultures were aerated by stirring with bubbling air (homemade manifold with Petco air pump, 2-4% CO2) or by orbital shaking (Thermo Scientific MAXQ 2000) at a constant speed of 150 rpm at 22±3° C. with a 16:8 hour light/dark cycle. Stocks were kept at stationary phase for use. Algae were prepared as dictated by culture center.
Compounds were selected based on reported biological activity in non-microalgae organisms. To ensure that compounds retained their quality, they were stored under advised conditions after purchasing from the manufacturer. Solutions of all assay compounds were prepared as 10 mM stock solutions by dissolving in DMSO in 2-dram amber vials and then stored in darkness −20° C. 96-well PCR plates were used to create a stock plate layout that was then transferred to the algae microplates. A plate map was used to distribute each compound to a well based on molecule name, collection number, and CAS number. For 20 μM and 200 nM assay plates, 10 mM compound stock in DMSO was diluted into plate maps of 5 mM and 50 μM assay stocks, respectively.
All materials for assay experiments were autoclaved before each use to maintain axenic algae cultures. Algae species were checked for homogeneity using a TS-100 light microscope (Nikon, Japan). […] Diluted stock solutions were made immediately prior to use for consistency and optimal plate growth. Cell density was measured on a Thermo Scientific Genesys 10S Vis Spectrophotometer (ThermoFisher, San Jose), using a 1 mL cuvette at 680 nm.
Plates were originally run in triplicate, before replicates were increased to quadruplicate, along with a separate control plate to compare growth. Due to extensive evaporation in exterior wells over time, our unique algae plate layout was designed to use the 60 interior wells out of 96 wells for the experiment. The 36 outer wells were filled with Millipore water and media to prevent evaporation and edge effects in the inner algae wells, as well as serve as blanks. The 60 wells with algae contained a total volume of 251 μL (100 μL of media+DMSO compound stock +150 μL dilute algae stock). For 20 μM and 200 nM assay plates, 10 mM compound stock in DMSO is diluted into plate maps of 5 mM and 50 μM assay stocks, respectively. […] Plates were parafilmed during growth to limit the amount of evaporation that can occur. Plates were numbered, and numerically ordered to ensure they got the same shaker space.
The shakers are kept at a constant shaking of 150 rpm. Ambient temperature is 22±3° C.

[2] = N. oculata, compounds tested at 200 nM, initial screening, p<0.05
[3] = Nannochloris sp., compounds tested at 20 μM, initial screening, p<0.05
[4] = 40 μM, dose-response microplate screen
[5] = 200 nM, initial microplate screen, relative to control
[6] = 10 μM, dose-response microplate screen
[7] = 40 μM, initial microplate screen, relative to control

Structure (SMILES): O=C(NCCCCCCNC(=O)ON=C1CCCCC1)ON=C1CCCCC1 [RHC80267, 1,6-bis(Cyclohexyloximinocarbonylamino)hexane]
- % in NR fl (Nannochloropsis salina): 71.52% and 68.33%
- % change in abs (Nannochloropsis oculata): 12.83%
- % in NR fl (Nannochloropsis oculata): 49.41%
- % change in abs [1]: −6.46%
- % in NR fl [1]: 45.19%

Structure (SMILES): COc1cc(/C=C/C(=O)CC(=O)/C=C/c2ccc(O)c(OC)c2)ccc1O [Curcumin, (1E,6E)-1,7-bis (4-hydroxy-3-methoxyphenyl)-1,6-heptadiene-3,5-dione]
- % increase (lipid production) (Nannochloropsis salina; 0.0252 nM-0.227 nM (H2O)): 5-9 (H2O) %
- % increase (lipid production) (Nannochloropsis salina; 18 nM-13 μM, DMSO delivery): 18-69%
- % increase (lipid production) (Nannochloropsis oculata; 0.0252-0.0757 nM): 4-10%
- % Lipid increase based on Nile red fluorescence intensity (Nannochloropsis oculata; N. oculata, 75.7 pM, DMSO): 49%
- % Increase based on Nile Red Fluorescence Intensity (Nannochloropsis oculata; N. oculata, 75.7 pM, DMSO delivery): 49%
- % increase (lipid production) ([1]; 6-494 nM): 7-30%

Structure (SMILES): O=c1cc(-c2ccccc2)oc2cc(O)c(O)c(O)c12 [Baicalein, 5,6,7-Trihydroxy-2-phenyl-chromen-4-one]
- % increase (lipid production) (Nannochloropsis salina; 0.0252-55.2 nM, DMSO delivery): 3-28%
- % increase (lipid production) (Nannochloropsis salina; 0.0252-165.6 nM (H2O)): 6-30 (H2O) %
- Nile Red Fluorescence % Increase (Nannochloropsis salina; N. salina, compounds tested at 20 μM, initial screening, p<0.05): 37.3%
- % increase (lipid production) (Nannochloropsis oculata; 0.0252 nM): 25%
- % Lipid increase based on Nile red fluorescence intensity (Nannochloropsis oculata; N. oculata, 25.2 pM, DMSO): 52%
- % Lipid increase based on Nile red fluorescence intensity (Nannochloropsis oculata; N. oculata, 40 μM, (water)): 76%
- % Increase based on Nile Red Fluorescence Intensity (Nannochloropsis oculata; N. oculata, 25.2 pM, DMSO delivery): 52%
- % Increase based on Nile Red Fluorescence Intensity (Nannochloropsis oculata; N. oculata, 40 μM, dissolved in water): 76%
- Nile Red percent increase ([1]; 0.0252 nM, dose-response microplate screen): 105%
- % increase (lipid production) ([1]; 0.0252-55.2 nM): 5-94%

Structure (SMILES): O=C(NCCN1CCC(n2c(=O)[nH]c3cc(Cl)ccc32)CC1)c1ccc(F)cc1 [Halopemide, N-[2-[4-(5-Chloro-2,3-dihydro-2-oxo-1H-benzimidazol-1-yl)piperidino]ethyl]-4-fluorobenzamide]
- % change in abs (Nannochloropsis oculata; N. oculata, 40 μM): −2.02%
- % in NR fl (Nannochloropsis oculata; N. oculata, 40 μM): 55.13%
- % change in abs ([1]; P. tricornutum, 10 μM): −31.22%
- % in NR fl ([1]; P. tricornutum, 10 μM): 73.94%

Structure (SMILES): O=c1c(O)c(-c2ccc(O)c(O)c2)oc2cc(O)cc(O)c12 [Quercitin]
- % Inc (Nannochloropsis oculata; increase of lipid production, N. oculata, best conc. 2.5 μM): 67.10%

Structure (SMILES): CC(O)C(=O)O (centres unmarked) [Lactic Acid]
- Nile Red Fluorescence % Increase (Nannochloropsis oculata; [2]): 128.8%
- Nile Red Fluorescence % Increase (Nannochloris sp.; [3]): 30.9%

Structure (SMILES): O=c1ccc2cc(O)c(O)cc2o1 [Esculetin, 6,7-Dihydroxy-2-chromenone]
- % increase (lipid production) (Nannochloropsis salina; 0.0252-6.13 nM (H2O)): 5-31 (H2O) %
- % increase (lipid production) (Nannochloropsis salina; 0.0757-55.2 nM, DMSO delivery): 1-30%
- % Lipid increase based on Nile red fluorescence intensity (Nannochloropsis salina; N. salina, 6.13 nM, DMSO, t=day 0): 62%
- % Increase based on Nile Red Fluorescence Intensity (Nannochloropsis salina; N. salina, 681 pM, DMSO delivery, added t=day 0): 50%
- % Increase based on Nile Red Fluorescence Intensity (Nannochloropsis salina; N. salina, 6.13 nM, DMSO delivery, added t=day 0): 62%
- % increase (lipid production) ([1]; 0.0252-18.4 nM): 3-79%

Structure (SMILES): O=C(O)/C=C/c1ccc(O)c(O)c1 [Caffeic acid]
- % increase (lipid production) (Nannochloropsis salina; 0.0252 nM-165.6 nM, DMSO delivery): 1-40%
- % increase (lipid production) (Nannochloropsis salina; 0.0252-0.681 nM (H2O)): 62-110 (H2O) %
- Nile Red percent increase (Nannochloropsis salina; 0.076-681 nM (H2O), dose-response microplate screen): 96-117%
- increase in lipid production (Nannochloropsis salina; diluted in water, microplate): more than 100%
- optimal effective concentration (lipid production) (Nannochloropsis salina; lipoxygenase inhibitor microplate screen): 0.22 to 0.68 nM
- lipid increase (Nannochloropsis salina; with DMSO, microplate): < 20%
- % increase (lipid production) (Nannochloropsis oculata; 0.681 nM): 5%
- % increase (lipid production) ([1]; 6-165 nM): 13-205%
- % Lipid increase based on Nile red fluorescence intensity ([1]; P. tricornutum, 4 μM, (water), t=day 0): 94%
- % Increase based on Nile Red Fluorescence Intensity ([1]; P. tricornutum, 4 μM, dissolved in water, added t=day 0): 94%
- effect on lipid production / lipid levels ([1]; microplate assay, multiple concentrations): minimal effect on lipid production

Structure (SMILES): O=C1NC(=O)c2c1c1c3ccccc3[nH]c1c1[nH]c3cc(Br)ccc3c21 [CDK4 I1, 2-Bromo-12,13-dihydro-5H-indolo[2,3-a]pyrrolo[3,4-c]carbazole-5,7(6H)-dione]
- % Lipid increase based on Nile red fluorescence intensity (Nannochloropsis salina; N. salina, 40 μM, DMSO, t=day 0): 49%
- % Increase based on Nile Red Fluorescence Intensity (Nannochloropsis salina; N. salina, 40 μM, DMSO delivery, added t=day 0): 49%
- Nile Red percent increase [1, 4]: 129%
- % Inc ([1]; P. tricornutum, best conc. 10 μM): 68.76%

Structure (SMILES): CNC[C@H](O)c1ccc(O)c(O)c1 [Epinephrine]
- Nile Red Fluorescence % Increase (Nannochloropsis oculata): 129.3%
- Nile Red Fluorescence % Increase (Nannochloris sp.): 44.9%

Structure (SMILES): CN(NO)C1=CC(=O)C(=O)C=C1 [3,4-dephostatin, 4-[(hydroxyamino)-methylamino]cyclohexa-3,5-diene-1,2-dione]
- % increase (lipid production) (Nannochloropsis salina; 0.0252-55.2 nM): 8-40%
- % increase (lipid production) (Nannochloropsis salina; 0.0252-165.6 nM (H2O)): 14-72%
- % increase (lipid production) ([1]; 0.0252-165.6 nM (H2O)): 5-46%
- % increase (lipid production) ([1]; 0.0252-165.6 nM, not marked H2O): 12-33%

Structure (SMILES): c1ccc2ncncc2c1 [Quinazoline, Benzopyrimidine]
- % increase (lipid production) (Nannochloropsis salina; […]-40 μM): (none)
- % increase (lipid production) ([1]; 4-40 μM (H2O)): 15-26 (H2O) %

Structure (SMILES): Nc1cc2ncnc(Nc3cccc(Br)c3)c2cc1N [BPDQ, 4-[(3-bromophenyl)amino]-6,7-diamino-quinazoline]
- Absorbance (percent increase) (Nannochloropsis salina; [5]): −6.7%
- Nile Red percent increase (Nannochloropsis salina; [5]): 54.9%
- % Lipid increase based on Nile red fluorescence intensity (Nannochloropsis salina; N. salina, concentration 6.0 (unit not given), DMSO, t=day 0): 130%
- % Increase based on Nile Red Fluorescence Intensity (Nannochloropsis salina; N. salina, 6.0 nM, DMSO delivery, added t=day 0): 130%
- % Increase based on Nile Red Fluorescence Intensity (Nannochloropsis salina; N. salina, 55 nM, DMSO delivery, added t=day 0): 86%
- % Lipid increase based on Nile red fluorescence intensity ([1]; P. tricornutum, 400 fM, (water), t=day 0): 63%
- % Increase based on Nile Red Fluorescence Intensity ([1]; P. tricornutum, 400 fM, dissolved in water, added t=day 0): 63%
- Absorbance (percent increase) (Nannochloris sp.; [5]): −6.5%
- Nile Red percent increase (Nannochloris sp.; [5]): 75.8%

Structure (SMILES): N#CC(C#N)=Cc1cc(O)c(O)c(O)c1 [AG82]
- Nile Red Fluorescence % Increase (Nannochloropsis oculata; [2]): 144.5%
- Nile Red Fluorescence % Increase (Nannochloris sp.; [3]): 54.2%

Structure (SMILES): C/C(=C\CNc1ncnc2nc[nH]c12)CO [Zeatin, (E)-2-methyl-4-(7H-purin-6-ylamino)but-2-en-1-ol]
- % Increase based on Nile Red Fluorescence Intensity (Nannochloropsis salina): 64% and 50%
- % Lipid increase based on Nile red fluorescence intensity (Nannochloropsis salina): 64%
- Nile Red Fluorescence % Increase (Nannochloropsis oculata): 157.1%
- % Increase based on Nile Red Fluorescence Intensity [1]: 114%
- % Lipid increase based on Nile red fluorescence intensity [1]: 114%

Structure (SMILES): NS(=O)(=O)c1ccc(N/N=C2\C(=O)Nc3ccc(Br)cc32)cc1 [CDK2 I2]
- Nile Red percent increase (Nannochloropsis salina; [6]): 121%
- Nile Red percent increase (Nannochloropsis salina; [4]): 271%
- Absorbance (percent increase) [1, 5]: −7.9%
- Nile Red percent increase [1, 5]: 50.3%
- Nile Red percent increase ([1]; 2.5 μM, dose-response microplate screen): 160%
- Nile Red percent increase [1, 6]: 140%
- Nile Red percent increase [1, 4]: 380%
- Absorbance (percent increase) [1, 7]: −14.6%
- Nile Red percent increase [1, 7]: 150.6%
- % Lipid increase based on Nile red fluorescence intensity ([1]; P. tricornutum, 40 μM, DMSO, t=day 0): 347%
- Nile Red Fluorescence % Increase ([1]; P. tricornutum, compounds tested at 200 nM): 50.3%
- Nile Red Fluorescence % Increase ([1]; P. tricornutum, compounds tested at 40 μM): 150.6%
- % Increase based on Nile Red Fluorescence Intensity ([1]; P. tricornutum, 10 μM, DMSO delivery, added t=day 0): 86%
- % Increase based on Nile Red Fluorescence Intensity ([1]; P. tricornutum, 40 μM, DMSO delivery, added t=day 0): 347%
- % Inc ([1]; P. tricornutum, best conc. 2.5 μM): 163.88%
- Nile Red percent increase (Nannochloris sp.; 40 nM-40 μM, dose-response microplate screen): 110-210%
- Absorbance (percent increase) (Nannochloris sp.; [5]): −14.0%
- Nile Red percent increase (Nannochloris sp.; [5]): 103.2%

Structure (SMILES): O=P(O)(O)Oc1ccc2ccccc2c1 [Napthyl acid phosphate, naphthalen-2-yl hydrogen phosphate]
- % increase (lipid production) (Nannochloropsis oculata): 18%
- % Increase based on Nile Red Fluorescence Intensity [1]: 51%
- % Lipid increase based on Nile red fluorescence intensity [1]: 51%
- % increase (lipid production) [1]: 4% and 1-60%
